Test results from US20250230193A1, “CYCLIC COMPOUND HAVING SELECTIVE KRAS INHIBITORY EFFECT ON HRAS AND NRAS” (CHUGAI SEIYAKU KABUSHIKI KAISHA, priority 2022, published 2025).
*1 amine or outer side, *2 acyl side, *3 side chain or, on linkers, in order; H or OH if unused. Where a SMILES comes first, the peptide text is derived from it. Bridges are numbered along the chain shown (N, C = ends). [ ]: non-standard residue; d: D form. The star is where a group is joined. hPhe(3-Cl-4-CF3) = N[C@@H](CCc1ccc(C(F)(F)F)c(Cl)c1)C(=O)O; X44 = CCCN([C@@H](Cc1ccccc1)C(=O)[*:2])[*:1]; NMeGly(cPent) = CN[C@H](C(=O)O)C1CCCC1; NMeD = CN[C@@H](CC(=O)O)C(=O)O; NMeL = CN[C@@H](CC(C)C)C(=O)O; Morpholide = C1CN(*)CCO1; NMeA = CN[C@@H](C)C(=O)O; Ac5c = NC1(C(=O)O)CCCC1; Aze = O=C(O)[C@@H]1CCN1; Sar = CNCC(=O)O

Key:
[1] = biological target: GDP-bound NRAS wild-type protein (Homo sapiens, UniProt P01111); experiment: Binding to NRAS by surface plasmon resonance (SPR), Single Cycle Kinetics; details: SPR
[2] = biological target: GDP-bound HRAS wild-type protein (Homo sapiens, UniProt P01112); experiment: Binding to HRAS by surface plasmon resonance (SPR), Single Cycle Kinetics; details: SPR
[3] = KD ratio, GDP-bound NRAS wild-type vs GDP-bound KRAS wild-type
[4] = KD ratio, GDP-bound HRAS wild-type vs GDP-bound KRAS wild-type

Sequence of GDP-bound NRAS wild-type protein (P01111 whole entry): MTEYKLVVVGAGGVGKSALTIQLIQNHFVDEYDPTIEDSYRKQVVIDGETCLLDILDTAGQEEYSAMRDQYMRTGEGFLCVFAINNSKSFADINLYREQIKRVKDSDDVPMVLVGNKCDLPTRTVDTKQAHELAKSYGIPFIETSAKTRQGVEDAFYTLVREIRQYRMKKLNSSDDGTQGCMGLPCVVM
Sequence of GDP-bound HRAS wild-type protein (P01112 whole entry): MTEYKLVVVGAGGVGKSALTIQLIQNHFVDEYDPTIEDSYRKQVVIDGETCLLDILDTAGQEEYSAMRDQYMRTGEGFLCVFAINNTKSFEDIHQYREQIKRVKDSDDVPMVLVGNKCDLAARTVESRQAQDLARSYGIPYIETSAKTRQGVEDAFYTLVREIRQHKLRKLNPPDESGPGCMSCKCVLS

CCCN1C(=O)[C@@H]2CCN2C(=O)[C@H](C)N(C)C(=O)[C@H]([C@@H](C)CC)NC(=O)[C@H](CC(C)C)N(C)C(=O)C[C@@H](C(=O)N2CCOCC2)N(C)C(=O)[C@H](C2CCCC2)N(C)C(=O)C2(CCCC2)NC(=O)[C@@H]2CCCN2C(=O)[C@H](CCc2ccc(C(F)(F)F)c(Cl)c2)NC(=O)CN(C)C(=O)[C@@H]1Cc1ccccc1 [PP0216] ([NMeL]I[NMeA][Aze][X44][Sar][hPhe(3-Cl-4-CF3)]P[Ac5c][NMeGly(cPent)][NMeD]-Morpholide; lactam N-11)
NRAS/KRAS (ratio of KD for GDP-bound NRAS wild-type to KD for KRAS) [1]: C (A compound having a KD ratio of 0.1 or more and less than 3 is denoted as C)
HRAS/KRAS (ratio of KD for GDP-bound HRAS wild-type to KD for KRAS) [2]: B (a compound having 3 or more and less than 10 is denoted as B)

CCO[C@@H]1C[C@H]2C(=O)NC3(CCC3)C(=O)N(C)[C@@H](C3CCCC3)C(=O)N(C)[C@H](C(=O)N(C)CC)CC(=O)N(C)[C@@H](CC)C(=O)N[C@@H]([C@@H](C)CC)C(=O)N(C)CC(=O)N(C)[C@H]3C/C=C\CCN(C3=O)[C@@H](CC3CCC(F)(F)CC3)C(=O)N(C)CC(=O)N[C@@H](CCc3cc(F)c(C(F)(F)F)c(F)c3)C(=O)N2C1 [PP1553]
NRAS/KRAS (ratio of KD value for GDP-bound NRAS wild-type protein to KD value for KRAS) ([1]; KD ratio class): A (a compound having 10 or more and less than 20 is denoted as A)
HRAS/KRAS (ratio of KD value for GDP-bound HRAS wild-type protein to KD value for KRAS) ([2]; KD ratio class): A (a compound having 10 or more and less than 20 is denoted as A)

CCO[C@@H]1C[C@H]2C(=O)NC3(CCC3)C(=O)N(C)[C@@H](C3CCCC3)C(=O)N(C)[C@H](C(=O)N3CCOCC3)CC(=O)N(C)[C@@H](CC(C)C)C(=O)N[C@@H]([C@@H](C)CC)C(=O)N(C)CC(=O)N(C)[C@H]3CC=CCN(C3=O)[C@@H](Cc3ccc(C(F)(F)F)cc3)C(=O)N(C)CC(=O)N[C@@H](CCc3cc(F)c(C(F)(F)F)c(F)c3)C(=O)N2C1 [PP0832]
NRAS/KRAS (ratio of KD value with respect to NRAS to KD value with respect to KRAS) [1, 3]: C (A compound having a KD ratio of 0.1 or more and less than 3 is denoted as C)
HRAS/KRAS (ratio of KD value with respect to HRAS to KD value with respect to KRAS) [2, 4]: C (A compound having a KD ratio of 0.1 or more and less than 3 is denoted as C)

CCCOC[C@H]1C(=O)N[C@@H]([C@@H](C)CC)C(=O)N(C)CC(=O)N(C)[C@H]2C/C=C\CCN(C2=O)[C@@H](Cc2ccc(C)cc2)C(=O)N(C)CC(=O)N[C@@H](CCc2ccc(C(F)(F)F)c(Cl)c2)C(=O)N2C[C@H](CC)C[C@H]2C(=O)NC2(CC(C)(C)C2)C(=O)N(C)[C@@H](C2CCCC2)C(=O)N(C)[C@H](C(=O)N(C)C)CC(=O)N1C [PP2235]
NRAS/KRAS (ratio of KD value with respect to NRAS to KD value with respect to KRAS) ([1]; GDP-bound NRAS wild-type vs GDP-bound KRAS wild-type): A (a compound having 10 or more and less than 20 is denoted as A)
HRAS/KRAS (ratio of KD value with respect to HRAS to KD value with respect to KRAS) ([2]; GDP-bound HRAS wild-type vs GDP-bound KRAS wild-type): A (a compound having 10 or more and less than 20 is denoted as A)

CCCN1C(=O)[C@@H]2CCN2C(=O)[C@H](C)N(C)C(=O)[C@H]([C@@H](C)CC)NC(=O)[C@H](CC(C)C)N(C)C(=O)C[C@@H](C(=O)N2CCOCC2)N(C)C(=O)[C@H](C2CCCC2)N(C)C(=O)C2(CCCC2)NC(=O)[C@@H]2C[C@H](O)CN2C(=O)[C@H](CCc2ccc(C(F)(F)F)c(Cl)c2)NC(=O)CN(C)C(=O)[C@@H]1Cc1ccc(C(F)(F)F)cc1 (stereo in doubt) [PP0238]
NRAS/KRAS (ratio of KD for GDP-bound NRAS wild-type to KD for KRAS) [1]: C (A compound having a KD ratio of 0.1 or more and less than 3 is denoted as C)
HRAS/KRAS (ratio of KD for GDP-bound HRAS wild-type to KD for KRAS) [2]: C (A compound having a KD ratio of 0.1 or more and less than 3 is denoted as C)

CCO[C@@H]1C[C@H]2C(=O)NC3(CC(F)(F)C3)C(=O)N(C)[C@@H](C3CCCC3)C(=O)N(C)[C@H](CC)CC(=O)N(C)[C@@H](CC3CC3)C(=O)N[C@@H]([C@@H](C)CC)C(=O)N(C)CC(=O)N(C)[C@H]3C/C=C\CCN(C3=O)[C@@H](Cc3ccc(C(F)(F)F)cc3)C(=O)N(C)CC(=O)N[C@@H](CCc3cc(F)c(C(F)(F)F)c(F)c3)C(=O)N2C1 [PP1633]
NRAS/KRAS (ratio of KD value for NRAS to KD value for KRAS) [1, 3]: A (a compound having 10 or more and less than 20 is denoted as A)
HRAS/KRAS (ratio of KD value for HRAS to KD value for KRAS) [2, 4]: B (a compound having 3 or more and less than 10 is denoted as B)
